From patent US20260022142A1, “MACROCYCLIC IMMUNOMODULATORS” (Bristol-Myers Squibb Company, priority 2022, published 2026)
Bridge positions count the residues as written; N and C are the ends. Square brackets hold non-standard residues; d marks the D form. Peptide text beside a SMILES is read from it. * marks the point of attachment. Phe(4-COOH) = N[C@@H](Cc1ccc(C(=O)O)cc1)C(=O)O; Bip = N[C@@H](Cc1ccc(-c2ccccc2)cc1)C(=O)O; Phe(3-Me) = Cc1cccc(C[C@H](N)C(=O)O)c1; Pro(4R-NH2) = N[C@H]1CN[C@H](C(=O)O)C1; hArg = N=C(N)NCCCC[C@H](N)C(=O)O; 4Pal = N[C@@H](Cc1ccncc1)C(=O)O; Cha = N[C@@H](CC1CCCCC1)C(=O)O; Carboxymethyl = O=C(O)C*; Orn = NCCC[C@H](N)C(=O)O; Aun = NCCCCCCCCCCC(=O)O; Dab = NCC[C@H](N)C(=O)O; Dap = NC[C@H](N)C(=O)O; AEEA = NCCOCCOCC(=O)O

Target: T1, PD-1/PD-L1 interaction (PE-labeled human PD-L1-Ig binding to Jurkat cell line over-expressing human PD-1) (Homo sapiens, UniProt Q15116)
T1 construct: expressed in transfected cells; host or cells: Jurkat
Assay: Jurkat-PD-1 Cell Binding High-Content Screening Assay (CBA)
Type: cell-based
Settings: Jurkat cell line over-expressing human PD-1; PE-labeled PD-L1-Ig 20 nM final; read-out: Jurkat hPD1-PDL1 IC50
Procedure, shortened: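 Jurkat cells over-expressing human PD-1 (8×10^3 per well, DMEM/10% FCS) preincubated with compound 2 h at 37° C, then PE-labeled human PD-L1-Ig (20 nM final) added for 1 h. Cells fixed with paraformaldehyde, Hoechst-stained, and bound fluorescence quantified by high-content imaging.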

T1 sequence (Q15116 25-288): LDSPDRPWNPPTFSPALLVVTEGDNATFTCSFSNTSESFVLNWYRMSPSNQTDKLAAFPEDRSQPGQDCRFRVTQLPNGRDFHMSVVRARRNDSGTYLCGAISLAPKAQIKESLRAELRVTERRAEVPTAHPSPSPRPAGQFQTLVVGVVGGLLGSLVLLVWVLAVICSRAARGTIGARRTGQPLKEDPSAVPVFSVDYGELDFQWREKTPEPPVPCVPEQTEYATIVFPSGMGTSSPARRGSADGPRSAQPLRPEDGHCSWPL

`CC(C)C[C@H]1NC(=O)[C@H](CCCN)NC(=O)[C@H](C(C)C)NC(=O)[C@H](Cc2ccc(-c3ccccc3)cc2)NC(=O)[C@H](C(C)C)NC(=O)[C@H](Cc2c[nH]c3ccccc23)NC(=O)[C@H](CC(=O)O)NC(=O)[C@H](Cc2ccc(OCC(=O)O)cc2)NC(=O)[C@H](Cc2ccncc2)NC(=O)CSC[C@@H](C(=O)NCC(=O)NCCOCCOCC(=O)N[C@@H](CCCN)C(=O)NCCCCCCCCCCC(=O)O)NC(=O)[C@H](CCN)NC(=O)[C@H](C(C)C)NC(=O)[C@H](CC2CCCCC2)NC(=O)[C@H](CCN)NC1=O` [Compound 3236] ({CH2CO}-[4Pal]Y(Carboxymethyl)DWV[Bip]V[Orn][dL][Dab][Cha]V[Dab]CG[AEEA][Orn][Aun]-OH; thioether N-14) was tested, and the IC50 was 3.9 nM.

Work on `CC(C)C[C@H]1NC(=O)[C@H](CCCN)NC(=O)[C@H](C(C)C)NC(=O)[C@H](Cc2ccc(-c3ccccc3)cc2)NC(=O)[C@H](C(C)C)NC(=O)[C@H](Cc2c[nH]c3ccccc23)NC(=O)[C@H](CC(=O)O)NC(=O)[C@H](Cc2ccc(OCC(=O)O)cc2)NC(=O)[C@H](Cc2ccncc2)NC(=O)CSC[C@@H](C(=O)NCC(=O)NCCOCCOCC(=O)N[C@@H](CCCN)C(=O)NCCCCCCCCCCC(=O)O)NC(=O)[C@H](CCN)NC(=O)[C@H](C(C)C)NC(=O)[C@H](CC2CCCCC2)NC(=O)[C@@H]2C[C@@H](N)CN2C1=O` [Compound 3237] ({CH2CO}-[4Pal]Y(Carboxymethyl)DWV[Bip]V[Orn][dL][Pro(4R-NH2)][Cha]V[Dab]CG[AEEA][Orn][Aun]-OH; thioether N-14) yielded an IC50 of 159 nM.

For `CC(C)C[C@H]1NC(=O)[C@H](CCCN)NC(=O)[C@H](C(C)C)NC(=O)[C@H](Cc2ccc(-c3ccccc3)cc2)NC(=O)[C@H](C(C)C)NC(=O)[C@H](Cc2c[nH]c3ccccc23)NC(=O)[C@H](CC(=O)O)NC(=O)[C@H](Cc2ccc(OCC(=O)O)cc2)NC(=O)[C@H](CCCNC(=N)N)NC(=O)CSC[C@@H](C(=O)NCC(=O)NCCOCCOCC(=O)N[C@@H](CCCN)C(=O)NCCCCCCCCCCC(=O)O)NC(=O)[C@H](CN)NC(=O)[C@H](C(C)C)NC(=O)[C@H](CC2CCCCC2)NC(=O)[C@H](CCN)NC1=O` [Compound 3238] ({CH2CO}-RY(Carboxymethyl)DWV[Bip]V[Orn][dL][Dab][Cha]V[Dap]CG[AEEA][Orn][Aun]-OH; thioether N-14), the IC50 was 11.7 nM.

`CC(C)C[C@H]1NC(=O)[C@H](CCCN)NC(=O)[C@H](C(C)C)NC(=O)[C@H](Cc2ccc(-c3ccccc3)cc2)NC(=O)[C@H](C(C)C)NC(=O)[C@H](Cc2c[nH]c3ccccc23)NC(=O)[C@H](CC(=O)O)NC(=O)[C@H](Cc2ccc(C(=O)O)cc2)NC(=O)[C@H](CCCNC(=N)N)NC(=O)CSC[C@@H](C(=O)NCC(=O)NCCOCCOCC(=O)N[C@@H](CCCN)C(=O)NCCCCCCCCCCC(=O)O)NC(=O)[C@H](CN)NC(=O)[C@H](C(C)C)NC(=O)[C@H](CC2CCCCC2)NC(=O)[C@H](CCN)NC1=O` [Compound 3239] ({CH2CO}-R[Phe(4-COOH)]DWV[Bip]V[Orn][dL][Dab][Cha]V[Dap]CG[AEEA][Orn][Aun]-OH; thioether N-14) showed an IC50 of 11.4 nM.

With `CC(C)C[C@H]1NC(=O)[C@H](CCCN)NC(=O)[C@H](C(C)C)NC(=O)[C@H](Cc2ccc(-c3ccccc3)cc2)NC(=O)[C@H](C(C)C)NC(=O)[C@H](Cc2c[nH]c3ccccc23)NC(=O)[C@H](CC(=O)O)NC(=O)[C@H](Cc2ccc(OCC(=O)O)cc2)NC(=O)[C@H](CCCNC(=N)N)NC(=O)CSC[C@@H](C(=O)NCC(=O)NCCOCCOCC(=O)N[C@@H](CCCN)C(=O)NCCCCCCCCCCC(=O)O)NC(=O)[C@H](CCN)NC(=O)[C@H](C(C)C)NC(=O)[C@H](CC2CCCCC2)NC(=O)[C@H](CCN)NC1=O` [Compound 3241] ({CH2CO}-RY(Carboxymethyl)DWV[Bip]V[Orn][dL][Dab][Cha]V[Dab]CG[AEEA][Orn][Aun]-OH; thioether N-14) the IC50 was 11.7 nM.

For `CC(C)C[C@H]1NC(=O)[C@H](CCCN)NC(=O)[C@H](C(C)C)NC(=O)[C@H](Cc2ccc(-c3ccccc3)cc2)NC(=O)[C@H](C(C)C)NC(=O)[C@H](Cc2c[nH]c3ccccc23)NC(=O)[C@H](CC(=O)O)NC(=O)[C@H](Cc2ccc(OCC(=O)O)cc2)NC(=O)[C@H](CCCNC(=N)N)NC(=O)CSC[C@@H](C(=O)NCC(=O)NCCOCCOCC(=O)N[C@@H](CCCN)C(=O)NCCCCCCCCCCC(=O)O)NC(=O)[C@H](CCN)NC(=O)[C@H](C(C)C)NC(=O)[C@H](CC2CCCCC2)NC(=O)[C@@H]2C[C@@H](N)CN2C1=O` [Compound 3242] ({CH2CO}-RY(Carboxymethyl)DWV[Bip]V[Orn][dL][Pro(4R-NH2)][Cha]V[Dab]CG[AEEA][Orn][Aun]-OH; thioether N-14), the IC50 was 700 nM.

With `CC(C)C[C@H]1NC(=O)[C@H](CCN)NC(=O)[C@H](C(C)C)NC(=O)[C@H](Cc2ccc(-c3ccccc3)cc2)NC(=O)[C@H](C(C)C)NC(=O)[C@H](Cc2c[nH]c3ccccc23)NC(=O)[C@H](CC(=O)O)NC(=O)[C@H](Cc2ccc(C(=O)O)cc2)NC(=O)[C@H](Cc2ccc(OCC(=O)O)cc2)NC(=O)CSC[C@@H](C(=O)N[C@@H](CCN)C(=O)NCCOCCOCC(=O)NCCCCCCCCCCC(=O)O)NC(=O)[C@H](CCCN)NC(=O)[C@H](C(C)C)NC(=O)[C@H](CC2CCCCC2)NC(=O)[C@H](CCN)NC1=O` [Compound 3243] ({CH2CO}-Y(Carboxymethyl)[Phe(4-COOH)]DWV[Bip]V[Dab][dL][Dab][Cha]V[Orn]C[Dab][AEEA][Aun]-OH; thioether N-14) the IC50 was 10.9 nM.

Compound `Cc1cccc(C[C@@H]2NC(=O)[C@H](CC(=O)O)NC(=O)[C@H](Cc3ccc(OCC(=O)O)cc3)NC(=O)[C@H](CCCCNC(=N)N)NC(=O)CSC[C@@H](C(=O)N[C@@H](CCN)C(=O)NCCOCCOCC(=O)NCCCCCCCCCCC(=O)O)NC(=O)[C@H](CCCN)NC(=O)[C@H](C(C)C)NC(=O)[C@H](CC3CCCCC3)NC(=O)[C@H](CCN)NC(=O)[C@@H](CC(C)C)NC(=O)[C@H](CN)NC(=O)[C@H](C(C)C)NC(=O)[C@H](Cc3ccc(-c4ccccc4)cc3)NC(=O)[C@H](C(C)C)NC2=O)c1` [Compound 3244] ({CH2CO}-[hArg]Y(Carboxymethyl)D[Phe(3-Me)]V[Bip]V[Dap][dL][Dab][Cha]V[Orn]C[Dab][AEEA][Aun]-OH; thioether N-14) has an IC50 of 10.9 nM.

For `Cc1cccc(C[C@@H]2NC(=O)[C@H](CC(=O)O)NC(=O)[C@H](Cc3ccc(OCC(=O)O)cc3)NC(=O)[C@H](CCCCNC(=N)N)NC(=O)CSC[C@@H](C(=O)N[C@@H](CCN)C(=O)NCCOCCOCC(=O)NCCCCCCCCCCC(=O)O)NC(=O)[C@H](CCCN)NC(=O)[C@H](C(C)C)NC(=O)[C@H](CC3CCCCC3)NC(=O)[C@H](CCN)NC(=O)[C@@H](CC(C)C)NC(=O)[C@H](CCCN)NC(=O)[C@H](C(C)C)NC(=O)[C@H](Cc3ccc(-c4ccccc4)cc3)NC(=O)[C@H](C(C)C)NC2=O)c1` [Compound 3245] ({CH2CO}-[hArg]Y(Carboxymethyl)D[Phe(3-Me)]V[Bip]V[Orn][dL][Dab][Cha]V[Orn]C[Dab][AEEA][Aun]-OH; thioether N-14), the IC50 was 11 nM.

For `Cc1cccc(C[C@@H]2NC(=O)[C@H](CC(=O)O)NC(=O)[C@H](Cc3ccc(OCC(=O)O)cc3)NC(=O)[C@H](CCCCNC(=N)N)NC(=O)CSC[C@@H](C(=O)NCC(=O)NCCOCCOCC(=O)N[C@@H](CCN)C(=O)NCCCCCCCCCCC(=O)O)NC(=O)[C@H](CCCN)NC(=O)[C@H](C(C)C)NC(=O)[C@H](CC3CCCCC3)NC(=O)[C@H](CCN)NC(=O)[C@@H](CC(C)C)NC(=O)[C@H](CCCN)NC(=O)[C@H](C(C)C)NC(=O)[C@H](Cc3ccc(-c4ccccc4)cc3)NC(=O)[C@H](C(C)C)NC2=O)c1` [Compound 3246] ({CH2CO}-[hArg]Y(Carboxymethyl)D[Phe(3-Me)]V[Bip]V[Orn][dL][Dab][Cha]V[Orn]CG[AEEA][Dab][Aun]-OH; thioether N-14), the IC50 was 26.5 nM.

In the case of `Cc1cccc(C[C@@H]2NC(=O)[C@H](CC(=O)O)NC(=O)[C@H](Cc3ccc(OCC(=O)O)cc3)NC(=O)[C@H](CCCCNC(=N)N)NC(=O)CSC[C@@H](C(=O)N[C@@H](CCCN)C(=O)NCCCCCCCCCCC(=O)O)NC(=O)[C@H](CCCN)NC(=O)[C@H](C(C)C)NC(=O)[C@H](CC3CCCCC3)NC(=O)[C@H](CCN)NC(=O)[C@@H](CC(C)C)NC(=O)[C@H](CCCN)NC(=O)[C@H](C(C)C)NC(=O)[C@H](Cc3ccc(-c4ccccc4)cc3)NC(=O)[C@H](C(C)C)NC2=O)c1` [Compound 3247] ({CH2CO}-[hArg]Y(Carboxymethyl)D[Phe(3-Me)]V[Bip]V[Orn][dL][Dab][Cha]V[Orn]C[Orn][Aun]-OH; thioether N-14), the IC50 is reported as 14.8 nM.

For `Cc1cccc(C[C@@H]2NC(=O)[C@H](CC(=O)O)NC(=O)[C@H](Cc3ccc(OCC(=O)O)cc3)NC(=O)[C@H](CCCCNC(=N)N)NC(=O)CSC[C@@H](C(=O)NCCOCCOCC(=O)N[C@@H](CCN)C(=O)NCCCCCCCCCCC(=O)O)NC(=O)[C@H](CCCN)NC(=O)[C@H](C(C)C)NC(=O)[C@H](CC3CCCCC3)NC(=O)[C@H](CCN)NC(=O)[C@@H](CC(C)C)NC(=O)[C@H](CCCN)NC(=O)[C@H](C(C)C)NC(=O)[C@H](Cc3ccc(-c4ccccc4)cc3)NC(=O)[C@H](C(C)C)NC2=O)c1` [Compound 3248] ({CH2CO}-[hArg]Y(Carboxymethyl)D[Phe(3-Me)]V[Bip]V[Orn][dL][Dab][Cha]V[Orn]C[AEEA][Dab][Aun]-OH; thioether N-14), the IC50 was 3.6 nM.

`Cc1cccc(C[C@@H]2NC(=O)[C@H](CC(=O)O)NC(=O)[C@H](Cc3ccc(OCC(=O)O)cc3)NC(=O)[C@H](CCCCNC(=N)N)NC(=O)CSC[C@@H](C(=O)NCCOCCOCC(=O)N[C@@H](CCN)C(=O)NCCCCCCCCCCC(=O)O)NC(=O)[C@H](CCCN)NC(=O)[C@H](C(C)C)NC(=O)[C@H](CC3CCCCC3)NC(=O)[C@H](CN)NC(=O)[C@@H](CC(C)C)NC(=O)[C@H](CCCN)NC(=O)[C@H](C(C)C)NC(=O)[C@H](Cc3ccc(-c4ccccc4)cc3)NC(=O)[C@H](C(C)C)NC2=O)c1` [Compound 3249] ({CH2CO}-[hArg]Y(Carboxymethyl)D[Phe(3-Me)]V[Bip]V[Orn][dL][Dap][Cha]V[Orn]C[AEEA][Dab][Aun]-OH; thioether N-14) gave an IC50 of 25.6 nM.
